In assay [1] the test system is Amaranth pigweed (PW). In words: Post-emergence herbicide test. The class given is in vivo, Amaranthus retroflexus. The following applies: 336 h, two weeks after treatment; for pest or weed control at 4483.4 g/ha: 4 lb/acre. On the procedure:
Amaranth pigweed (PW)--Amaranthus retroflexus
All crop and weed species were planted individually in 3' plastic pots containing potting soil. Four seeds each of corn, cotton, and snapbeans were seeded to a depth equal to the diameter of the seed. All other species were surface seeded and sprinkled with screened soil in an amount sufficient to cover the seed. Immediately after planting, all pots were watered by sub-irrigation in greenhouse trays. Pots for the pre-emergence phase were seeded one day before treatment.
Planting dates for the post-emergence phase were varied so that all seedlings would reach the desired stage of development simultaneously. The proper stage of seedling development for treatment in the post-emergence phase is as follows:
Pigweed and turnips: 1 or 2 true leaves above visible cotyledons.
Compounds were tested at rates of application equivalent to 8 lbs. of actual compound per acre in a spray volume of 38 gallons per acre. Spray hood constants required to deliver the above volume are as follows:
Formulations for spray applications were prepared in 50 ml volumes with the following three components:
Formulations for the 4 lbs/acre rate were prepared by adjusting the amount of active ingredient accordingly.
Spray applications were made in a hood containing a removable belt and fixed spray nozzle. For passage through the spray hood, one pot of each specie (pre-emergence phase) was placed on the rear half of the flat. Treatments were removed to the greenhouse after spraying. Watering during the observation period was done only by sub-irrigation.
Two weeks after treatment, pre- and post-emergence injury or control was visually rated, and the results were as shown in the following tables. Pre-emergence data are provided in TABLE III and post-emergence data are provided in TABLE IV, for compounds having the formula illustrated in TABLE I. Correspondingly, pre-emergence and post-emergence data, respectively, are set forth in TABLES V AND VI, for compounds having the formula illustrated in TABLE II.

Assay [2] relates to Bean (BN). In words: Post-emergence herbicide test. The class given is in vivo, Phaseolus vulgaris var. Black Valentine. To be noted: Phaseolus vulgaris, post-emergence, 336 h, two weeks after treatment; for pest or weed control at 4483.4 g/ha: 4 lb/acre. The gist of the method:
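Snapbean (Phaseolus vulgaris var. Black Valentine) was tested post-emergence. Four seeds were sown in 3' plastic pots of potting soil at a depth equal to the seed diameter, then sub-irrigated in greenhouse trays. Planting dates were staggered so plants were sprayed once primary leaves had expanded, with the growing point at the primary leaf nodes.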

In assay [3] the test system is Johnson grass (JG). Briefly: Pre-emergence herbicide test. The class given is in vivo, Sorgum helepense. The following applies: Sorghum halepense, 336 h, two weeks after treatment; for pest or weed control at 4483.4 g/ha: 4 lb/acre. The gist of the method:
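Pots seeded one day before spraying; compound applied pre-emergence at 8 lbs/acre (or 4 lbs/acre) in 38 gallons/acre spray volume. Sub-irrigated in greenhouse; injury/control rated visually two weeks after treatment.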

Assay [4] has as its system Corn (CN). In words: Pre-emergence herbicide test. In kind it is in vivo. The following applies: Zea mays, 336 h, two weeks after treatment; for pest or weed control at 4483.4 g/ha: 4 lb/acre. The gist of the method:
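Four corn seeds per pot, sown at seed-diameter depth one day before spraying, got soil surface treatment at 8 lbs/acre (4 lbs/acre formulations also prepared) in 38 gallons/acre. Pots were greenhouse-held with sub-irrigation only. Injury or control was scored visually two weeks after treatment.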

Assay [5] has as its system Barnyard grass (BG). In words: Pre-emergence herbicide test. The class given is in vivo. The following applies: Echinochloa crus-galli, 336 h, two weeks after treatment; for pest or weed control at 4483.4 g/ha: 4 lb/acre. The gist of the method: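 Barnyard grass surface-seeded in potting soil and sprayed pre-emergence one day after seeding, at 8 or 4 lb compound/acre in 38 gal/acre spray volume. Pots kept in greenhouse with sub-irrigation only; injury or control rated visually two weeks after treatment.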

The subject of assay [6] is Amaranth pigweed (PW). Briefly: Pre-emergence herbicide test. The following applies: 336 h, two weeks after treatment; for pest or weed control at 4483.4 g/ha: 4 lb/acre. The class given is in vivo, Amaranthus retroflexus. The gist of the method:
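Pigweed was surface-seeded in potted soil one day before spraying at 8 lbs compound per acre, or 4 lbs/acre, in 38 gallons per acre. Pots were kept in the greenhouse with sub-irrigation only; injury or control was rated visually two weeks after treatment.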

The subject of assay [7] is Bean (BN). In words: Pre-emergence herbicide test. The class given is in vivo, Phaseolus vulgaris var. Black Valentine. The following applies: Phaseolus vulgaris, 336 h, two weeks after treatment; for pest or weed control at 4483.4 g/ha: 4 lb/acre. The gist of the method: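 Black Valentine bean was seeded in potting soil one day before spraying. Compound was applied pre-emergence at 8 lbs/acre (also 4 lbs/acre) in 38 gallons per acre. Plants were sub-irrigated and injury or control was rated visually after two weeks.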

The test system of assay [8] is Crabgrass (CG). Briefly: Pre-emergence herbicide test. The class given is in vivo, Digitaria sanquinalis. To be noted: Digitaria sanguinalis, pre-emergence, 336 h, two weeks after treatment; for pest or weed control at 4483.4 g/ha: 4 lb/acre. The gist of the method: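 Crabgrass (Digitaria sanquinalis) was surface seeded in 3' plastic pots of potting soil, covered with screened soil, and watered by sub-irrigation in greenhouse trays. Pots were seeded one day before spraying in a hood with a moving belt and fixed nozzle. Plants stayed in the greenhouse on sub-irrigation, and pre-emergence control was rated visually two weeks after treatment.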

Assay [9] deals with Cotton (CT). Briefly: Post-emergence herbicide test. The class given is in vivo, Gossypium hirsutum var. DPL smooth leaf. To be noted: Gossypium hirsutum, post-emergence, 336 h, two weeks after treatment; for pest or weed control at 4483.4 g/ha: 4 lb/acre. The gist of the method:
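Cotton (Gossypium hirsutum var. DPL smooth leaf) was grown in 3' plastic pots of potting soil, four seeds per pot, planted at a depth equal to the seed diameter and watered by sub-irrigation. At the stage of expanded cotyledons with the first true leaf 1' long, plants were sprayed post-emergence in a hood with a fixed nozzle over a moving belt. Percent control was rated visually two weeks later.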

The test system of assay [10] is Crabgrass (CG). In words: Post-emergence herbicide test. In kind it is in vivo, Digitaria sanquinalis. The following applies: Digitaria sanguinalis, post-emergence, 336 h, two weeks after treatment; for pest or weed control at 4483.4 g/ha: 4 lb/acre. The gist of the method: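 Crabgrass (Digitaria sanquinalis) was surface seeded individually in 3' plastic pots of potting soil, covered with screened soil, and watered by sub-irrigation in greenhouse trays. Planting was staggered so seedlings reached the target stage together. Post-emergence sprays were applied in a hood with a removable belt and fixed nozzle, and control was visually rated two weeks after treatment.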

In assay [11] the test system is Johnson grass (JG). Briefly: Post-emergence herbicide test. To be noted: Sorghum halepense, 336 h, two weeks after treatment; for pest or weed control at 4483.4 g/ha: 4 lb/acre. The class given is in vivo, Sorgum helepense. The gist of the method:
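Greenhouse pot-grown seedlings sprayed post-emergence at 8 lbs compound per acre (some at 4 lbs/acre) in 38 gallons per acre spray volume. Sub-irrigated thereafter. Injury/control rated visually two weeks after treatment.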

Assay [12] relates to Turnip (TP). Briefly: Pre-emergence herbicide test. The following applies: Brassica rapa, pre-emergence, 336 h, two weeks after treatment; for pest or weed control at 4483.4 g/ha: 4 lb/acre. In kind it is in vivo, Brassica sp. The gist of the method:
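Turnip (Brassica sp.) seeds were surface sown in 3' plastic pots of potting soil, covered with a thin layer of screened soil, and sub-irrigated in greenhouse trays. Pots were seeded one day ahead of treatment, sprayed pre-emergence under a hood with a fixed nozzle and moving belt, then kept in the greenhouse.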

Assay [13] relates to Turnip (TP). In words: Post-emergence herbicide test. The following applies: Brassica rapa, post-emergence, 336 h, two weeks after treatment; for pest or weed control at 4483.4 g/ha: 4 lb/acre. In kind it is in vivo, Brassica sp. The gist of the method:
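A greenhouse post-emergence herbicide test on turnip. Seeds were sown on the surface of potting soil in 3' plastic pots, lightly covered with screened soil and watered from below. Planting was timed so seedlings had 1 or 2 true leaves above the cotyledons at spraying, done in a hood with a fixed nozzle. Control or injury was scored by eye after two weeks.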

The subject of assay [14] is Cotton (CT). In words: Pre-emergence herbicide test. In kind it is in vivo, Gossypium hirsutum var. DPL smooth leaf. The following applies: Gossypium hirsutum, 336 h, two weeks after treatment; for pest or weed control at 4483.4 g/ha: 4 lb/acre. The gist of the method: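 Crop and weed species seeded one day before treatment, then sprayed pre-emergence at 8 lbs actual compound per acre (also 4 lbs/acre formulations) in 38 gallons per acre. Pots kept in greenhouse with sub-irrigation only; injury or control visually rated two weeks after treatment.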

Assay [15] deals with Corn (CN). Briefly: Post-emergence herbicide test. To be noted: Zea mays, 336 h, two weeks after treatment; for pest or weed control at 4483.4 g/ha: 4 lb/acre. In kind it is in vivo. The gist of the method: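 Greenhouse seedlings grown in potting soil and sprayed post-emergence at 8 lbs compound/acre (formulations also made for 4 lbs/acre) in 38 gallons/acre spray volume. Watering by sub-irrigation only. Injury or control rated visually two weeks after treatment.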

For assay [16], the system named is Barnyard grass (BG). In words: Post-emergence herbicide test. The class given is in vivo. The following applies: Echinochloa crus-galli, 336 h, two weeks after treatment. The gist of the method:
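Greenhouse pot-grown barnyard grass seedlings sprayed post-emergence at 8 lbs active compound per acre (some at 4 lbs/acre) in 38 gallons per acre, then sub-irrigated. Injury or control rated visually two weeks after treatment.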

From US4175081A, “5-Substituted thiadiazole ureas” (priority 1977, dated 1979) come the findings set out here.

A word on the pest or weed control: it is how far the test organism was held down. Read a low pest or weed control as weak suppression.

Turning to `CNC(=O)Nc1nnc(SCC#N)s1` [Example 88], the pest or weed control at 4483.4 g/ha was determined as 20% in the assay with Amaranth pigweed (PW) [1]; 30% in the assay with Bean (BN) [2]; 10% in the assay with Johnson grass (JG) [3]; 10% in the assay on Corn (CN) [4]; 10% with Barnyard grass (BG) [5]; 10% in the assay on Amaranth pigweed (PW) [6]. Besides, the pest or weed control at 4483.4 g/ha in the assay on Bean (BN) [7] was 100%; with Crabgrass (CG) [8] it was 10%; with Cotton (CT) [9], 50%; in the assay on Crabgrass (CG) [10] it was 20%; in the assay with Johnson grass (JG) [11], 20%; in the assay with Turnip (TP) [12], 70%. Moreover, the pest or weed control at 4483.4 g/ha in the assay on Turnip (TP) [13] stood at 40%; in the assay on Cotton (CT) [14], 50%; with Corn (CN) [15], 20%.
As for `CCCSc1nnc(N(C)C(=O)N(C)C)s1` [Example 66], the pest or weed control at 2241.7 g/ha was 100% in the assay with Amaranth pigweed (PW) [1] (2 lb/acre); 90% in the assay with Bean (BN) [2] (2 lb/acre); 20% in the assay on Johnson grass (JG) [3] (2 lb/acre); 0% in the assay on Corn (CN) [4] (2 lb/acre); 30% in the assay on Barnyard grass (BG) [5] (2 lb/acre); 100% in the assay on Amaranth pigweed (PW) [6] (2 lb/acre). Further, the pest or weed control at 2241.7 g/ha came to 100% with Bean (BN) [7] (2 lb/acre); 100% in the assay on Cotton (CT) [9] (2 lb/acre); 50% in the assay on Turnip (TP) [12] (2 lb/acre); 100% with Turnip (TP) [13] (2 lb/acre); 80% in the assay on Cotton (CT) [14] (2 lb/acre); 60% with Barnyard grass (BG) [16] (2 lb/acre). Also, the pest or weed control at 4483.4 g/ha in the assay with Amaranth pigweed (PW) [1] was determined as 100%; with Bean (BN) [2], 100%; in the assay on Johnson grass (JG) [3], 100%; with Corn (CN) [4], 50%; in the assay with Barnyard grass (BG) [5], 100%; in the assay on Amaranth pigweed (PW) [6] it was 100%. For the same molecule, the pest or weed control at 4483.4 g/ha was determined as 100% with Bean (BN) [7]; 100% in the assay on Crabgrass (CG) [8]; 100% in the assay on Cotton (CT) [9]; 100% in the assay with Crabgrass (CG) [10]; 60% in the assay on Johnson grass (JG) [11]; 100% in the assay on Turnip (TP) [12]. The pest or weed control at 4483.4 g/ha was determined as 100% in the assay on Turnip (TP) [13], 100% with Cotton (CT) [14], 70% in the assay on Barnyard grass (BG) [16] (4 lb/acre) and 100% in the assay on Corn (CN) [15]. Besides, the pest or weed control with Crabgrass (CG) [8] (2 lb/acre) stood at 30%; in the assay with Crabgrass (CG) [10] (2 lb/acre), 50%; with Johnson grass (JG) [11] (2 lb/acre), 50%; in the assay with Corn (CN) [15] (2 lb/acre), 30%.
On to `CCOC(=O)C(Sc1nnc(NC(=O)NC)s1)C(=O)OCC` [Example 79], for which the pest or weed control at 4483.4 g/ha was found to be 40% in the assay on Amaranth pigweed (PW) [1]; 60% in the assay on Bean (BN) [2]; 20% with Johnson grass (JG) [3]; 20% with Corn (CN) [4]; 0% with Amaranth pigweed (PW) [6]; 90% in the assay on Bean (BN) [7]. Besides, the pest or weed control at 4483.4 g/ha came out at 20% in the assay on Crabgrass (CG) [8]; 90% in the assay with Cotton (CT) [9]; 30% in the assay on Crabgrass (CG) [10]; 30% with Johnson grass (JG) [11]; 20% in the assay on Turnip (TP) [12]; 40% in the assay on Turnip (TP) [13]. In addition, the pest or weed control at 4483.4 g/ha with Cotton (CT) [14] turned out to be 50%; in the assay with Corn (CN) [15], 40%.
